Laboratory results as given in patent publication US12310970B2, “Compounds and methods for treating or preventing anterior segment ocular disorders and/or retinal degenerations” (YALE UNIVERSITY, priority 2018, dated 2025).
Where a name gives a salt, the structure may show the parent alone.

Key:
[1] = system: corneal endothelial cells; test: TBHP-induced cell death in corneal endothelial cells; assay type: cell-based, cow; details: corneal endothelial cells (FIG. 18); 0.9 μM 24 h, then 300 μM TBHP 24 h
Protocol: (§1) Immortalized cow corneal endothelial cells (CRL-2048) obtained from the American Type Culture Collection (ATCC, Manassas, VA, USA) were cultured in Dulbecco's modified Eagle's medium (DMEM; Thermo Fisher Scientific, Waltham, MA) containing 10% fetal bovine serum (FBS), 100 IU/mL penicillin, 100 μg/mL streptomycin, 100 μg/mL gentamicin, and 2.5 μg/mL amphotericin B (Thermo Fisher Scientific). Human ARPE-19 cells were plated in 96-well plates for 24 hours in DMEM supplemented with FBS and antibiotics. ARPE-19 cells were preincubated with either ciclopirox olamine (Sigma), compound 414 (Chemical Diversity, San Diego, CA), compound 434 (Chemical Diversity) or no compound for 24 hours and then exposed to varying concentrations of tert-butyl hydroperoxide (TBHP; Sigma-Aldrich, St. Louis, MO) the next day for 24 hours. Cell viability was measured the following day by […] cell viability assay (Promega, Madison, WI) using a BioTek FLX800TM fluorescence reader (BioTek Winooski, VT). […] Protective effect of 0.9 μMciclopirox olamine on lens epithelial cells exposed to 300 μMTBHP.

[2] = system: Human lens epithelial cells; test: TBHP-induced cell death in lens epithelial cells; assay type: cell-based; details: lens epithelial cells (FIG. 19); 0.9 μM 24 h, then 300 μM TBHP 24 h
Protocol: as §1, with “human lens epithelial” for “cow corneal endothelial”, “(CRL-11421)” for “(CRL-2048)”, “in” for “in Dulbecco's modified”, “minimum essential media (EMEM, ATCC)” for “medium (DMEM; Thermo Fisher Scientific, Waltham, MA)”

## Cc1cc(C2CCCCC2)n(O)c(=O)c1 [ciclopirox olamine, 6-cyclohexyl-1-hydroxy-4-methyl-2(1H)-pyridone, ethanolamine salt, reference compound]
[1]
  cell viability after exposure to TBHP: significantly increases cell viability
[2]
  cell viability after exposure to TBHP: significantly increases cell viability
